Entries after “also recorded” stand apart in the source; their conditions may differ.
Legend:
[1] = tested on: human intestinal bacteria; details: cited from earlier work
[2] = tested on: C57BL/6J mice fed high fat diet; test: Plasma insulin level (ELISA), high-fat diet induced model; format: in vivo, mouse; details: day 14 of treatment after 8 weeks high-fat diet; P<0.05; GW1929 5 mg/kg, UP394 and UP396 100 mg/kg
Description: A high-fat diet induced animal model was developed and used for evaluation of potential therapeutic effects of chromone extracts. The C57BL/6J is a clinically relevant animal model that can be used in studies on metabolic disorders, pathophysiology of impaired glucose tolerance and for development of novel therapeutic agents (Ahren et al. (2004) Diabetes 53 (Supplement 3):S215-S219; Laakso et al. (2004) Diabetes Care 27:2253-2259; Kahn et al. (2004) Diabetes 53:3274-3285; Scheurink et al. (1998) European J Endo. 139:461-467; Yuan et al. (2002) Diabetes 51:1851-1858; Reitman et al. (2005) Endocrinology 145:3258-3264; Vlassara et al. (2005) Diabetes 54:2314-2319; Cawthome et al. (2002) Molecular and Cellular Proteomics 1:509-516). Methodology of model induction was first explained by Surwit et al. in 1988 (Diabetes, 37:1163-1167). In brief, impaired glucose tolerance and metabolic disorder like symptoms were inflicted successfully in C57BL/6J mice when fed with high fat diets for 8 weeks. Male C57BL/6J mice were purchased from Jackson Laboratories (Bar Harbor, Me.) at age of 6 weeks. One week after acclimation period, animals were divided into groups (n=5 or 6) and provided with high fat (45% kcal) rodent pellet (Research diets, Inc., New Brunswick, N.J.) and water ad libitum for 12 weeks except at times of glucose and insulin tolerance tests at which feed was withheld for three hours. Animals were maintained in a temperature controlled room (22.2° C.) on a 12 hour light-dark cycle. Blood glucose, cholesterol, and triglyceride were monitored every week for 12 weeks as described previously. Body weight measurement was taken once a week for 12 weeks.
Once induction of the metabolic disorders was confirmed by weekly monitoring of selected parameters (glucose, triglyceride and cholesterol) i.e. on the 8th week, daily intraperitoneal treatment was initiated and maintained for 4 weeks. […]
The plasma insulin levels were measured with an ELISA kit for insulin (Crystal Chem—Chicago, Ill.). […]

[3] = tested on: adiponectin secreted into the media by differentiated 3T3-L1 cells; test: Adiponectin ELISA assay, improved protocol (differentiated 2 days, treated 48 hours); format: cell-based, mouse; details: for activity in the adiponectin assay: sub-fractions and isolated compounds of P0017-OE
Protocol: (§1) 3T3-L1, an embryonic mouse cell line (American Type Culture Collection, Manassas, Va.), is a sub-strain of the 3T3 swiss albino line that can differentiate from a pre-adipose to adipose state. These preadipocytes were cultured in Dulbecco's modified Eagle medium (DMEM) containing 10% fetal bovine serum (FBS) (Mediatech, Inc., Herndon, Va.).
(§2) To establish a differentiation protocol, the 3T3-L1 cells were plated into 96-well plates and cultured overnight to confluence. The confluent cells were induced to differentiate 2 days post-confluence. The induction was conducted with 0.5 mM isobutylmethylzanthine, 1.0 μM dexamethasone and 1.7 μM insulin (Sigma-Aldrich, St. Louis, Mo.) supplemented into culture media. On the 7th day the adipocytes were treated with the control compounds or plant extracts for 24 hours. All controls and plant extracts were solublized in DMSO and added to the culture media at 1% of the total volume. Cell media was collected to measure the levels of adiponectin and assayed by enzyme-linked immunosorbent assay (ELISA) according to the manufacturer's protocol (R&D Systems, Minneapolis, Minn.). The assay sensitivity ranged from 31.25-2000 pg/mL. The positive controls were tested in a range from 0.01 to 300 μM (FIG. 1).
Due to the poor signal to background ratio of the assay (less than 2), the previously mentioned protocol needed to be improved. Adipocytes were plated and differentiated as previously described. The cells were differentiated in the differentiation medium for 48 hours either with or without the addition of insulin. Then the cells were treated with the control compounds or plant extracts for only 48 hours post-differentiation. All other parameters were the same as previously mentioned. The indomethacin (FIG. 1) and troglitazone (data not shown) controls were tested at 10-100 μM and 3-30 μM respectively. The greatest increase in the level of adiponectin was 52-fold above the signal of baseline which was achieved by indomethacin treatment at 100 μM, while the lowest increase was 7-fold with indomethacin at 10 μM (FIG. 1B).

tyrosinase = details: in vitro; Yagi et al. (1987); cited from earlier work
[4] = tested on: C57BL/6J mice fed high fat diet; test: Intraperitoneal glucose tolerance test, high-fat diet induced model (UP394/UP396); format: in vivo, mouse; details: day 18; times 60, 90 and 120 minutes; p<0.05; GW1929 5 mg/kg, UP396 100 mg/kg intraperitoneally
Description: A high-fat diet induced animal model was developed and used for evaluation of potential therapeutic effects of chromone extracts. The C57BL/6J is a clinically relevant animal model that can be used in studies on metabolic disorders, pathophysiology of impaired glucose tolerance and for development of novel therapeutic agents (Ahren et al. (2004) Diabetes 53 (Supplement 3):S215-S219; Laakso et al. (2004) Diabetes Care 27:2253-2259; Kahn et al. (2004) Diabetes 53:3274-3285; Scheurink et al. (1998) European J Endo. 139:461-467; Yuan et al. (2002) Diabetes 51:1851-1858; Reitman et al. (2005) Endocrinology 145:3258-3264; Vlassara et al. (2005) Diabetes 54:2314-2319; Cawthome et al. (2002) Molecular and Cellular Proteomics 1:509-516). Methodology of model induction was first explained by Surwit et al. in 1988 (Diabetes, 37:1163-1167). […] Blood glucose, cholesterol, and triglyceride were monitored every week for 12 weeks as described previously. […]
An intraperitoneal glucose tolerance test was conducted using the C57BL/6J mice as described in Example 12 at a dose of 2 g/kg on day 18 of treatment with intraperitoneal administration of GW1929 (5 mg/kg), UP394 (100 mg/kg), UP396 (100 mg/kg) and vehicle. […] Blood glucose levels were measured at time 0, 30, 60, 90, and 120 minutes. […]

[5] = tested on: adiponectin secreted into the media by differentiated 3T3-L1 cells; test: Adiponectin ELISA assay, previously published protocol (differentiated 7 days, treated 24 hours); format: cell-based, mouse; details: for fold increase in adiponectin level: 1 μM, greatest fold increase, differentiated 7 days, treated 24 hours
Protocol: as §1, §2

Molecule	plasma insulin levels compared to vehicle [2]	fold increase in adiponectin level ([3]; 30 μM, treated 48 hours)	activity in the adiponectin assay [3]	fold increase in adiponectin level [5]	further results
CC(=O)Cc1cc(=O)c2c(C)cc(O)c([C@@H]3O[C@H](CO)[C@@H](O)[C@H](O)[C@H]3O)c2o1 [UP394, aloesin]	decreased the insulin levels significantly; also recorded: Significant decreases in plasma insulin levels	2 fold	active in increasing adiponectin production	–	cleavage of the c-glucosyl bond [1]: can be cleaved; activity in the adiponectin assay ([3]; listed as P0017-AC1): exhibited activity in the adiponectin assay; inhibition of tyrosinase activity (tyrosinase): strong inhibitor
aloesinol [UP396]	decreased the insulin levels significantly; also recorded: Significant decreases in plasma insulin levels	–	active in increasing adiponectin production	–	glucose utilization in intraperitoneal glucose tolerance test compared to vehicle [4]: Significant glucose utilization; activity in the adiponectin assay ([3]; listed as P0017-AC2): exhibited activity in the adiponectin assay
Cc1cc(O)c(C2OC(O)C(O)C(O)C2CO)c2oc(CC(C)O)cc(=O)c12 (stereo not drawn) [UP396, aloesinol]	–	3.2 fold	–	–	–
Cc1c(C)c2c(c(C)c1O)CCC(C)(COc1ccc(CC3SC(=O)NC3=O)cc1)O2 (stereo not drawn) [troglitazone]	–	49 fold	–	1.7 fold	fold increase in adiponectin level ([3]; 3 μM, treated 48 hours): 24 fold
COc1ccc2c(c1)c(CC(=O)O)c(C)n2C(=O)c1ccc(Cl)cc1 [indomethacin]	–	–	–	1.6 fold	signal to background ratio of the assay ([5]; best ratio, indomethacin at concentrations between 0.1-300 μM, published experimental conditions): 1.6; fold increase in adiponectin level ([3]; 10 μM, differentiated 2 days, treated 2 days): 7 fold; fold increase in adiponectin level ([3]; 100 μM, differentiated 2 days, treated 2 days): 52 fold

From patent US8852657B2, “Chromones as therapeutic agents” (Unigen, Inc., priority 2007, dated 2014)
